# Assay results as given in patent publication US6653529B2, “Use of the maize X112 mutant ahas 2 gene and imidazolinone herbicides for selection of transgenic monocots, maize, rice and wheat plants resistant to the imidazolinone herbicides” (BASF Aktiengesellschaft, priority 2000, dated 2003).
# “And” between values parts separate entries of the source, which are not always exact repeats. Identical values can stand only once.
# Key:
# Type in all cases: in vivo
# [1] = tested on: transgenic corn hybrid MAa-7; experiment: Greenhouse spray test of corn lines with imidazolinone herbicides, injury score; conditions: for Score, individual plants (0 dead plants, 5 healthy plants with no injury) / M.S.: MAa-7; for Score, individual plants (0 dead plants, 5 healthy plants with no injury): 16 days after treatment; for M.S.: score 0 (dead) to 5 (healthy), 16 days
# [2] = tested on: non-transformed control corn line BxA (B73×A188); experiment: as above; conditions: for Score, individual plants (0 dead plants, 5 healthy plants with no injury): 16 days after treatment; for M.S.: score 0 (dead) to 5 (healthy), 16 days
# [3] = tested on: transgenic corn hybrid BAa-4; experiment: as above; conditions: for Score, individual plants (0 dead plants, 5 healthy plants with no injury) / M.S.: BAa-4; for Score, individual plants (0 dead plants, 5 healthy plants with no injury): 16 days after treatment; for M.S.: score 0 (dead) to 5 (healthy), 16 days
# [4] = tested on: 3395IR (homozygous XA17 imi-resistant corn line); experiment: as above; conditions: for Score, individual plants (0 dead plants, 5 healthy plants with no injury): 16 days after treatment; for M.S.: score 0 (dead) to 5 (healthy), 16 days
# transgenic rice Line 29 = experiment: Response of rice plants to various herbicides, seed set in greenhouse; conditions: post-emergence, 1× g ai/ha: PURSUIT 62.5, CADRE 32, ARSENAL 24, RAPTOR 32, SCEPTER 125, ACCENT 35, CLASSIC 5, AC322,140 20, LONDAX 68
# In short: (§1)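 Greenhouse flats, 10 plants per cell; 9 herbicides (imidazolinones, rice herbicides, nicosulfuron, chlorimuron-ethyl) sprayed pre- or post-emergence at 1, 2, 4 and 6× rates, three replications. Fresh weight taken 32 days (pre) or 29 days (post, 5 plants/cell) after spraying; remaining plants grown to maturity for percentage filled-seed set.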
# [5] = tested on: untransformed Nt rice plants; experiment: as above; conditions: post-emergence, 1× g ai/ha: PURSUIT 62.5, CADRE 32, ARSENAL 24, RAPTOR 32, SCEPTER 125, ACCENT 35, CLASSIC 5, AC322,140 20, LONDAX 68
# In short: as §1
# transgenic rice Line 26 = experiment: as above; conditions: post-emergence, 1× g ai/ha: PURSUIT 62.5, CADRE 32, ARSENAL 24, RAPTOR 32, SCEPTER 125, ACCENT 35, CLASSIC 5, AC322,140 20, LONDAX 68
# In short: as §1
# [6] = tested on: 8692IT (heterozygous XI12 imi-tolerant corn line); experiment: Greenhouse spray test of corn lines with imidazolinone herbicides, injury score; conditions: for Score, individual plants (0 dead plants, 5 healthy plants with no injury): 16 days after treatment; for M.S.: score 0 (dead) to 5 (healthy), 16 days
# [7] = 4×: PURSUIT 250, RAPTOR 160, ARSENAL 96, CADRE 400 g/ha
# [8] = 8×: PURSUIT 500, RAPTOR 320, ARSENAL 192, CADRE 800 g/ha
# [9] = 16×: RAPTOR 640 g/ha, ARSENAL 384 g/ha, CADRE 1.6 kg/ha
compound,measurement,setting,value
"COCc1cnc(C2=NC(C)(C(C)C)C(=O)N2)c(C(=O)O)c1 (centres unmarked) [RAPTOR ®, imazamox]",performance of transgenic line MAa-7,[1]; 4× (160 g/ha),performed well
same,"Score, individual plants (0 dead plants, 5 healthy plants with no injury)",[1]; [7],4 and 5 (4×)
same,M.S.,[1]; [7],4.8
same,"Score, individual plants (0 dead plants, 5 healthy plants with no injury)",[1]; [8],3 (3×) and 2 and 4
same,M.S.,[1]; [8],3
same,"Score, individual plants (0 dead plants, 5 healthy plants with no injury)",[1]; [9],1
same,M.S.,[1]; [9],1
same,"Score, individual plants (0 dead plants, 5 healthy plants with no injury)",[2]; [7],0
same,M.S.,[2]; [7],0
same,"Score, individual plants (0 dead plants, 5 healthy plants with no injury)",[2]; [8],0
same,M.S.,[2]; [8],0
same,"Score, individual plants (0 dead plants, 5 healthy plants with no injury)",[2]; [9],0
same,M.S.,[2]; [9],0
same,growth of transgenic line BAa-4,[3]; 4× (160 g/ha),slightly affected
same,"Score, individual plants (0 dead plants, 5 healthy plants with no injury)",[3]; [7],3 and 4 (4×)
same,M.S.,[3]; [7],3.8
same,"Score, individual plants (0 dead plants, 5 healthy plants with no injury)",[3]; [8],4 (4×) and 0
same,M.S.,[3]; [8],3.2
same,"Score, individual plants (0 dead plants, 5 healthy plants with no injury)",[3]; [9],3 and 0 (3×) and 1
same,M.S.,[3]; [9],0.8
same,"Score, individual plants (0 dead plants, 5 healthy plants with no injury)",[4]; [7],5
same,M.S.,[4]; [7],5
same,"Score, individual plants (0 dead plants, 5 healthy plants with no injury)",[4]; [8],5
same,M.S.,[4]; [8],5
same,"Score, individual plants (0 dead plants, 5 healthy plants with no injury)",[4]; [9],5
same,M.S.,[4]; [9],5
same,% seed-set,transgenic rice Line 29; 1× rate,89%
same,No. filled seeds/3 panicles,transgenic rice Line 29; 1× rate,161
same,Total No. of kernels/3 panicles,transgenic rice Line 29; 1× rate,180
same,% seed-set,transgenic rice Line 29; 2× rate,80%
same,No. filled seeds/3 panicles,transgenic rice Line 29; 2× rate,137
same,Total No. of kernels/3 panicles,transgenic rice Line 29; 2× rate,171
same,% seed-set,transgenic rice Line 29; 4× rate,91%
same,No. filled seeds/3 panicles,transgenic rice Line 29; 4× rate,152
same,Total No. of kernels/3 panicles,transgenic rice Line 29; 4× rate,167
same,% seed-set,transgenic rice Line 29; 6× rate,80%
same,No. filled seeds/3 panicles,transgenic rice Line 29; 6× rate,125
same,Total No. of kernels/3 panicles,transgenic rice Line 29; 6× rate,149
same,% seed-set,[5]; 1× rate,0%
same,No. filled seeds/3 panicles,[5]; 1× rate,0
same,Total No. of kernels/3 panicles,[5]; 1× rate,0
same,% seed-set,[5]; 2× rate,0%
same,No. filled seeds/3 panicles,[5]; 2× rate,0
same,Total No. of kernels/3 panicles,[5]; 2× rate,0
same,% seed-set,[5]; 4× rate,0%
same,No. filled seeds/3 panicles,[5]; 4× rate,0
same,Total No. of kernels/3 panicles,[5]; 4× rate,0
same,% seed-set,[5]; 6× rate,0%
same,No. filled seeds/3 panicles,[5]; 6× rate,0
same,Total No. of kernels/3 panicles,[5]; 6× rate,0
same,% seed-set,transgenic rice Line 26; 1× rate,87%
same,No. filled seeds/3 panicles,transgenic rice Line 26; 1× rate,156
same,Total No. of kernels/3 panicles,transgenic rice Line 26; 1× rate,180
same,% seed-set,transgenic rice Line 26; 2× rate,89%
same,No. filled seeds/3 panicles,transgenic rice Line 26; 2× rate,172
same,Total No. of kernels/3 panicles,transgenic rice Line 26; 2× rate,193
same,% seed-set,transgenic rice Line 26; 4× rate,91%
same,No. filled seeds/3 panicles,transgenic rice Line 26; 4× rate,166
same,Total No. of kernels/3 panicles,transgenic rice Line 26; 4× rate,183
same,% seed-set,transgenic rice Line 26; 6× rate,77%
same,No. filled seeds/3 panicles,transgenic rice Line 26; 6× rate,136
same,Total No. of kernels/3 panicles,transgenic rice Line 26; 6× rate,167
same,"Score, individual plants (0 dead plants, 5 healthy plants with no injury)",[6]; [7],4 and 3 (3×) and 2
same,M.S.,[6]; [7],3
same,"Score, individual plants (0 dead plants, 5 healthy plants with no injury)",[6]; [8],3 (2×) and 2 (2×)
same,M.S.,[6]; [8],2.5
same,"Score, individual plants (0 dead plants, 5 healthy plants with no injury)",[6]; [9],2 (2×) and 1 and 0 (2×)
same,M.S.,[6]; [9],1
